In PMC12397098, “3-Monothiopomalidomide, a new immunomodulatory imide drug (IMiD), blunts inflammation and mitigates ischemic stroke in the rat” (GeroScience, 2025):

Key:
Assay in all cases: PDSP radioligand binding
Settings in all cases: read-out: 3-MP concentration required to induce 50% inhibition of PDSP radioligand binding
[1] = molecular target: T1, Adrenergic Beta3 receptor (Homo sapiens, UniProt P13945)
T1 construct: NIMH Psychoactive Drug Screening Program (PDSP)
Protocol: (§1) To evaluate potential binding at classical neurological drug targets, 3-MP and 3,6’-DP were submitted to the National Institute on Mental Health (NIMH) Psychoactive Drug Screening Program (PDSP: Univ. N Carolina, Chapel Hill, NC, USA < https://pdspdb.unc.edu/pdspweb/ >) as powdered samples in the provided vials. The materials were then prepared at the PDSP in 10% DMSO, subjected to multiple assay screens, and processed as per the PDSP Assay Protocol Book (Version 3, March 2018). Compounds that exceeded an initial 10 uM binding threshold were then delegated for secondary dose–response analysis. This screen comprised a 45-target comprehensive panel of common brain receptor and transporter drug targets.

Muscarinic M4 receptor = Muscarinic M4 receptor (Homo sapiens, UniProt P08173)
Protocol: as §1

Histamine H1 receptor = Histamine H1 receptor (Homo sapiens, UniProt P35367)
Protocol: as §1

NET transporter = NET transporter (Homo sapiens, UniProt P23975)
Chain of NET transporter (P23975 whole entry): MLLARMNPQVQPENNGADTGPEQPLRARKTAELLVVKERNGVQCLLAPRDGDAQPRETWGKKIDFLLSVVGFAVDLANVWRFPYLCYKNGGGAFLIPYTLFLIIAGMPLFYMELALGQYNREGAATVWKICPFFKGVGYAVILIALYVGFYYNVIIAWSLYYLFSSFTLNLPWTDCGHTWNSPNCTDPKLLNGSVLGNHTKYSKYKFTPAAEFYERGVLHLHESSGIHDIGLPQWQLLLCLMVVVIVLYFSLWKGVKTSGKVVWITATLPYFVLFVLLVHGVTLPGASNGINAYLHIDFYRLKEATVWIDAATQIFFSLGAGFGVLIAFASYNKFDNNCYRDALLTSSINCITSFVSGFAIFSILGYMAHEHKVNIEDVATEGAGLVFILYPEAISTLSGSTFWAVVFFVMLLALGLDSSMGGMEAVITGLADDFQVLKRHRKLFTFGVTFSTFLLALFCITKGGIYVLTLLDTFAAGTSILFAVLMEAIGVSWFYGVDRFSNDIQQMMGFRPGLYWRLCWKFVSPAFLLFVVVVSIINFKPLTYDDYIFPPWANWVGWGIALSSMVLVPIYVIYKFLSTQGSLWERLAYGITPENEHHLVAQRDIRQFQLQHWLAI
Protocol: as §1

κ-opioid receptor = κ-opioid receptor (Homo sapiens, UniProt P41145)
Chain of κ-opioid receptor (P41145 whole entry): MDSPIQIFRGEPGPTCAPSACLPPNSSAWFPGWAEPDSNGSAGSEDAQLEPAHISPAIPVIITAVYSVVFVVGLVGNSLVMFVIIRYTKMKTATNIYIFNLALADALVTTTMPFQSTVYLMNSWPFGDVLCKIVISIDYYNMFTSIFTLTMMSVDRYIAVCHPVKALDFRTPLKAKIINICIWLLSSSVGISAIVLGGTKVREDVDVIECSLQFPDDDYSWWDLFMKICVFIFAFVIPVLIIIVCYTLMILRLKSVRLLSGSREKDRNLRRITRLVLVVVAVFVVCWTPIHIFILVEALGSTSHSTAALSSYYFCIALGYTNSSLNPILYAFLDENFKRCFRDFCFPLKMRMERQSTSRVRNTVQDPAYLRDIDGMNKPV
Protocol: as §1

DAT transporter = DAT transporter (Homo sapiens, UniProt Q01959)
Chain of DAT transporter (Q01959 whole entry): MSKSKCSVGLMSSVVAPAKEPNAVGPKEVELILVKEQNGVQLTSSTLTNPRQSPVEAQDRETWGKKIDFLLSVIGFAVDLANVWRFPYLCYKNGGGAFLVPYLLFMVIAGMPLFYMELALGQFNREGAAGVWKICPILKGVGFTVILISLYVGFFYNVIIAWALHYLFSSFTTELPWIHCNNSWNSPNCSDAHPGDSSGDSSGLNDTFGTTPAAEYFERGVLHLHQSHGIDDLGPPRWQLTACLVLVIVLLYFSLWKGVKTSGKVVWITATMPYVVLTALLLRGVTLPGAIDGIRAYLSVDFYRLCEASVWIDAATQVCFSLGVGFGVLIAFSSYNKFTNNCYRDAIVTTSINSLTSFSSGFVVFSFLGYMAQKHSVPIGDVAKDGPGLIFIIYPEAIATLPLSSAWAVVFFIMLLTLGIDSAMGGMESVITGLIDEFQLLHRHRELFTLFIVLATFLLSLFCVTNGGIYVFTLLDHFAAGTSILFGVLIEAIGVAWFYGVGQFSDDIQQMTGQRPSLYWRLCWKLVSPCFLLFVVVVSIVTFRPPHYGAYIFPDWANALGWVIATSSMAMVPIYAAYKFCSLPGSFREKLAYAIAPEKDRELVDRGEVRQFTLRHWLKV
Protocol: as §1

[2] = molecular target: T2, Benzodiazepine PBR receptor (Rattus norvegicus, UniProt P16257)
T2 construct: NIMH Psychoactive Drug Screening Program (PDSP)
Protocol: as §1

Muscarinic M2 receptor = Muscarinic M2 receptor (Homo sapiens, UniProt P08172)
Chain of Muscarinic M2 receptor (P08172 whole entry): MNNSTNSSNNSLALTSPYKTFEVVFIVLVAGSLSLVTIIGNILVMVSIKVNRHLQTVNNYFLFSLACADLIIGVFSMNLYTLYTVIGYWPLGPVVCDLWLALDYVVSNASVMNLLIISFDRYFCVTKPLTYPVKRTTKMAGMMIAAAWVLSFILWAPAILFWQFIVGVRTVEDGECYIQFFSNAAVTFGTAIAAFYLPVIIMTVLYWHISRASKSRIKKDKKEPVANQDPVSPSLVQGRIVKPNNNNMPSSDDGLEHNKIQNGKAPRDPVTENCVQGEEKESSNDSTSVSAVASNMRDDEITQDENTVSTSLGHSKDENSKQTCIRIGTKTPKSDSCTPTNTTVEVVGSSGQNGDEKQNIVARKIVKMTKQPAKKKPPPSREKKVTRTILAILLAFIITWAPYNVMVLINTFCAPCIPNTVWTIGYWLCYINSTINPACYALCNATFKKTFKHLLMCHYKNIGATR
Protocol: as §1

[3] = molecular target: T3, Serotonin 5-HT1E receptor (Homo sapiens, UniProt P28566)
T3 construct: NIMH Psychoactive Drug Screening Program (PDSP)
T3 sequence (P28566 whole entry): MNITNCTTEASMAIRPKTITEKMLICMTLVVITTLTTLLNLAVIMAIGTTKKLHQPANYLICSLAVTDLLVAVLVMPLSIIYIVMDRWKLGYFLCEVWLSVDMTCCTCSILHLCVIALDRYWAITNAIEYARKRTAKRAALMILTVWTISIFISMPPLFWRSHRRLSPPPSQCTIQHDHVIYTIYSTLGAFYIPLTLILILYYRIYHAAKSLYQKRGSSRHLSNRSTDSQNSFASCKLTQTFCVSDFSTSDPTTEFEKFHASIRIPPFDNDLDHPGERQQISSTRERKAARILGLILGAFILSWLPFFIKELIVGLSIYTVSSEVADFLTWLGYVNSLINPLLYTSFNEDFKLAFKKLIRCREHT
Protocol: as §1

[4] = molecular target: T4, Adrenergic Alpha2C receptor (Homo sapiens, UniProt P18825)
T4 construct: NIMH Psychoactive Drug Screening Program (PDSP)
Protocol: as §1

Sigma 2 receptor = Sigma 2 receptor (Rattus norvegicus, UniProt Q5U3Y7)
Protocol: as §1

[5] = molecular target: T5, Serotonin 5-HT2C receptor (Homo sapiens, UniProt P28335)
T5 construct: NIMH Psychoactive Drug Screening Program (PDSP)
Protocol: as §1

Dopamine D5 receptor = Dopamine D5 receptor (Homo sapiens, UniProt P21918)
Chain of Dopamine D5 receptor (P21918 whole entry): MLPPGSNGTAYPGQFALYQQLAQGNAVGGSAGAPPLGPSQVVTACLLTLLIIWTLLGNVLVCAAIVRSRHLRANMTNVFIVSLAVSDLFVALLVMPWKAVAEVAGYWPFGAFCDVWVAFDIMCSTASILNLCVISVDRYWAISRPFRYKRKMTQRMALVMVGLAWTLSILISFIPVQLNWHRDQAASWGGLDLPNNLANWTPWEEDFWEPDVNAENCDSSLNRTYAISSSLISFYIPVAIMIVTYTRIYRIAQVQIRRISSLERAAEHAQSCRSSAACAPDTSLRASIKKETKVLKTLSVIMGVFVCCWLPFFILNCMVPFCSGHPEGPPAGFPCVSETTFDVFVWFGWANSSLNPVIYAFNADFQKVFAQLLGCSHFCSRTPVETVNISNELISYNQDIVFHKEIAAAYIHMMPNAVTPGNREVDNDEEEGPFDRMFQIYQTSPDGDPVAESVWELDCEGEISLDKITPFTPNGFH
Protocol: as §1

[6] = molecular target: T6, Serotonin 5-HT1B receptor (Homo sapiens, UniProt P28222)
T6 construct: NIMH Psychoactive Drug Screening Program (PDSP)
Protocol: as §1

Serotonin 5-HT6 receptor = molecular target: T7, Serotonin 5-HT6 receptor (Homo sapiens, UniProt P50406)
T7 construct: NIMH Psychoactive Drug Screening Program (PDSP)
T7 sequence (P50406 whole entry): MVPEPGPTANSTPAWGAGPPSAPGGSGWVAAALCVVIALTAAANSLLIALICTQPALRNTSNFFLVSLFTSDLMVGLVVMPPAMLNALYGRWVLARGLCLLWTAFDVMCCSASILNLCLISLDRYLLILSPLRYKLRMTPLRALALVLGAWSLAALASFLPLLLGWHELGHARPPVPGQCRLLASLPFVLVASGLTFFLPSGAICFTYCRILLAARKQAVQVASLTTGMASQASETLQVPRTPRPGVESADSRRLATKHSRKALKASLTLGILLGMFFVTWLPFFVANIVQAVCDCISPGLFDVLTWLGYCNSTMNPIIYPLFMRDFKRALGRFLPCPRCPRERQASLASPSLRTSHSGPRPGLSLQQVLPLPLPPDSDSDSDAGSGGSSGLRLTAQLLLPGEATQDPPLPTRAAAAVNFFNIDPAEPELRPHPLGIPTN
Protocol: as §1

GABAA receptor = molecular target: GABAA receptor
Protocol: as §1

[7] = molecular target: T8, Adrenergic Alpha1A receptor (Homo sapiens, UniProt P35348)
T8 construct: NIMH Psychoactive Drug Screening Program (PDSP)
Protocol: as §1

Muscarinic M1 receptor = Muscarinic M1 receptor (Homo sapiens, UniProt P11229)
Protocol: as §1

[8] = molecular target: T9, Adrenergic Alpha2A receptor (Homo sapiens, UniProt P08913)
T9 construct: NIMH Psychoactive Drug Screening Program (PDSP)
Protocol: as §1

[9] = molecular target: T10, Adrenergic Beta2 receptor (Homo sapiens, UniProt P07550)
T10 construct: NIMH Psychoactive Drug Screening Program (PDSP)
Protocol: as §1

Muscarinic M3 receptor = Muscarinic M3 receptor (Homo sapiens, UniProt P20309)
Chain of Muscarinic M3 receptor (P20309 whole entry): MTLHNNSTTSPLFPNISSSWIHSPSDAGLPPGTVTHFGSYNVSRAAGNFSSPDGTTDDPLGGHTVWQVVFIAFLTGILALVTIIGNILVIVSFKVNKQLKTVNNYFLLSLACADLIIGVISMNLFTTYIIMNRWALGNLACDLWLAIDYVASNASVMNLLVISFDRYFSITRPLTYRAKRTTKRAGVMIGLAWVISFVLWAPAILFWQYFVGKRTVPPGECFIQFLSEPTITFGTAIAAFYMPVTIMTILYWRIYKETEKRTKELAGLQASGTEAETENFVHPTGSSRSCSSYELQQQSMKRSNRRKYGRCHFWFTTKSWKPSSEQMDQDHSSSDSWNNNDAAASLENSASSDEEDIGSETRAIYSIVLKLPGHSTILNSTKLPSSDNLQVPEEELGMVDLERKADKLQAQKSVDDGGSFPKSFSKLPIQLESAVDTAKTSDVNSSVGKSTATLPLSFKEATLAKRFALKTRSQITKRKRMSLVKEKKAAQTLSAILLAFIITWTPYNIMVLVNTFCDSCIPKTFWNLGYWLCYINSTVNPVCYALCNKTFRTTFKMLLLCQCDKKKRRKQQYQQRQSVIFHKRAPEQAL
Protocol: as §1

Dopamine D1 receptor = molecular target: T11, Dopamine D1 receptor (Homo sapiens, UniProt P21728)
T11 construct: NIMH Psychoactive Drug Screening Program (PDSP)
Protocol: as §1

μ-opioid receptor = μ-opioid receptor (Homo sapiens, UniProt P35372)
Protocol: as §1

SERT transporter = SERT transporter (Homo sapiens, UniProt P31645)
Protocol: as §1

[10] = molecular target: T12, Serotonin 5-HT1A receptor (Homo sapiens, UniProt P08908)
T12 construct: NIMH Psychoactive Drug Screening Program (PDSP)
Protocol: as §1

[11] = molecular target: T13, Serotonin 5-HT5A receptor (Homo sapiens, UniProt P47898)
T13 construct: NIMH Psychoactive Drug Screening Program (PDSP)
Protocol: as §1

[12] = molecular target: T14, Serotonin 5-HT2A receptor (Homo sapiens, UniProt P28223)
T14 construct: NIMH Psychoactive Drug Screening Program (PDSP)
Protocol: as §1

[13] = molecular target: T15, Serotonin 5-HT7A receptor (Homo sapiens, UniProt P34969)
T15 construct: NIMH Psychoactive Drug Screening Program (PDSP)
T15 sequence (P34969 1-445 isoform P34969-2): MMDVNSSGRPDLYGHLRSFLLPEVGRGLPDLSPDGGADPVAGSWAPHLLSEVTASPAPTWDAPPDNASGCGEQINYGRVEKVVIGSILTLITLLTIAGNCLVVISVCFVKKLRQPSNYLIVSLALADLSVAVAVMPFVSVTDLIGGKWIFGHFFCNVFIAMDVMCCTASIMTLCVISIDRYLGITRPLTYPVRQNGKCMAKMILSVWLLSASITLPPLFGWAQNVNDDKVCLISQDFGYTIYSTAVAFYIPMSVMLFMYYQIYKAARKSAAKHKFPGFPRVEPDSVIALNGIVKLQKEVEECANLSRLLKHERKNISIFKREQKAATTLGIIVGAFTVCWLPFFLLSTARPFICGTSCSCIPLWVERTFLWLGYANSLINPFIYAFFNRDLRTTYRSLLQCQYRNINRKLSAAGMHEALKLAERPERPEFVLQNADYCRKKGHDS
Protocol: as §1

[14] = molecular target: T16, Adrenergic Beta1 receptor (Homo sapiens, UniProt P08588)
T16 construct: NIMH Psychoactive Drug Screening Program (PDSP)
Protocol: as §1

Histamine H4 receptor = Histamine H4 receptor (Homo sapiens, UniProt Q9H3N8)
Protocol: as §1

[15] = molecular target: T17, Adrenergic Alpha2B receptor (Homo sapiens, UniProt P18089)
T17 construct: NIMH Psychoactive Drug Screening Program (PDSP)
Protocol: as §1

Dopamine D4 receptor = Dopamine D4 receptor (Homo sapiens, UniProt P21917)
Protocol: as §1

δ-opioid receptor = δ-opioid receptor (Homo sapiens, UniProt P41143)
Protocol: as §1

[16] = molecular target: T18, Adrenergic Alpha1D receptor (Homo sapiens, UniProt P25100)
T18 construct: NIMH Psychoactive Drug Screening Program (PDSP)
Protocol: as §1

[17] = molecular target: T19, Adrenergic Alpha1B receptor (Homo sapiens, UniProt P35368)
T19 construct: NIMH Psychoactive Drug Screening Program (PDSP)
Protocol: as §1

Histamine H2 receptor = Histamine H2 receptor (Homo sapiens, UniProt P25021)
Protocol: as §1

Dopamine D3 receptor = Dopamine D3 receptor (Homo sapiens, UniProt P35462)
Protocol: as §1

Muscarinic M5 receptor = Muscarinic M5 receptor (Homo sapiens, UniProt P08912)
Protocol: as §1

Dopamine D2 receptor = molecular target: T20, Dopamine D2 receptor (Homo sapiens, UniProt P14416)
T20 construct: NIMH Psychoactive Drug Screening Program (PDSP)
T20 sequence (P14416 whole entry): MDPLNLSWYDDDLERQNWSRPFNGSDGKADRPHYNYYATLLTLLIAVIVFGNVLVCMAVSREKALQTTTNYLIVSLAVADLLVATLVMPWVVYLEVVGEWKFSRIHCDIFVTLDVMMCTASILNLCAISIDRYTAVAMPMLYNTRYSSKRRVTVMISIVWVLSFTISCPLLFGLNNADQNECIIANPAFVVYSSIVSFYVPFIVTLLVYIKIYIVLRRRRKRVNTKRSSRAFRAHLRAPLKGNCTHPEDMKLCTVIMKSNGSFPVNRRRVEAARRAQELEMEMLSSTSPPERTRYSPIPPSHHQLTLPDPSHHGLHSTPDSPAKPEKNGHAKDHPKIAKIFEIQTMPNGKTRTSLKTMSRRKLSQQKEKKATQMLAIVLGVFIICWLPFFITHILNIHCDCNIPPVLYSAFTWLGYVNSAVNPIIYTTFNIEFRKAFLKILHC
Protocol: as §1

Measured: IC50

Nc1cccc2c1C(=S)N(C1CCC(=O)NC1=O)C2=O (stereo not drawn) [3-MP, 3-Monothiopomalidomide]
> 10 µM: all assays above
